The values that follow come from patent publication US20250206732A1, “COMPOUNDS AND METHODS FOR THE TARGETED DEGRADATION OF KRAS” (Arvinas Operations, Inc., priority 2022, published 2025).

This test concerns the target T1, AsPC-1 HiBiT-KRASG12D (Homo sapiens, UniProt P01116, G12D).
T1 construct: insert the HiBiT tag onto the N-terminus of one or more of the endogenous KRAS alleles; endogenous in cells; host or cells: AsPC-1 (ATCC CRL-1682), CRISPR-Cas9 knock-in clone, one tagged allele
Put plainly: HiBiT degradation assay (G12D), AsPC-1 HiBiT-KRASG12D cells. Conditions: 24 hours treatment; for Dmax: ASPC1, AsPC-1 HiBiT-KRASG12D cells, maximum degradation observed; for DC50: AsPC-1 HiBiT-KRASG12D cells, HiBiT luminescence. The format is cell-based. A digest of the protocol:
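In this degradation format, an engineered AsPC-1 clone with HiBiT fused to the KRAS N-terminus is exposed to compounds for 24 hours, after which remaining tagged protein is quantified by lytic HiBiT luminescence.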

Each structure is given as a SMILES string.

T1 sequence (P01116 1-188 isoform P01116-2 G12D): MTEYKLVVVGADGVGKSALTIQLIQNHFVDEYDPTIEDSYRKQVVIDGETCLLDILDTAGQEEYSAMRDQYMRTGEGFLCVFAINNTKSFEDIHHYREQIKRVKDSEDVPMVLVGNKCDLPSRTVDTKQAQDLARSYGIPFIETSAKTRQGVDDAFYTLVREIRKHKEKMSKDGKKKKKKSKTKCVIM

With `CCc1cccc2cc(O)cc(-c3ncc4c(N5CC6CCC(C5)N6)nc(OC[C@]56CCCN5[C@H](COC(=O)N5CCN(c7cc([C@H](C(=O)N8C[C@H](O)C[C@H]8C(=O)N[C@@H](C)c8ccc(-c9scnc9C)cc8)C(C)C)on7)C[C@H]5C)CC6)nc4c3F)c12` [Compound 120, [(3S,7aR)-7a-{[(4-{3,8-diazabicyclo[3.2.1]octan-3-yl}-7-(8-ethyl-3-hydroxynaphthalen-1-yl)-8-fluoropyrido[4,3-d]pyrimidin-2-yl)oxy]methyl}-hexahydro-1H-pyrrolizin-3-yl]methyl (2R)-4-{5-[(2R)-1-[(2S,4R)-4-hydroxy-2-{[(1S)-1-[4-(4-methyl-1,3-thiazol-5-yl)phenyl]ethyl]carbamoyl}pyrrolidin-1-yl]-3-methyl-1-oxobutan-2-yl]-1,2-oxazol-3-yl}-2-methylpiperazine-1-carboxylate], the Dmax (commonly the greatest extent of degradation seen) lay in the range of 80 to 100% and the DC50 (in general, the concentration at which degradation of the target reaches its halfway point) is less than 0.6 µM.

`CCc1cccc2cc(O)cc(-c3ncc4c(N5CC6CCC(C5)N6)nc(OC[C@]56CCCN5[C@H](COC(=O)N5CC(COc7cc([C@H](C(=O)N8C[C@H](O)C[C@H]8C(=O)N[C@@H](C)c8ccc(-c9scnc9C)cc8)C(C)C)on7)C5)CC6)nc4c3F)c12` [Compound 121, [(3S,7aR)-7a-{[(4-{3,8-diazabicyclo[3.2.1]octan-3-yl}-7-(8-ethyl-3-hydroxynaphthalen-1-yl)-8-fluoropyrido[4,3-d]pyrimidin-2-yl)oxy]methyl}-hexahydro-1H-pyrrolizin-3-yl]methyl 3-[({5-[(2R)-1-[(2S,4R)-4-hydroxy-2-{[(1S)-1-[4-(4-methyl-1,3-thiazol-5-yl)phenyl]ethyl]carbamoyl}pyrrolidin-1-yl]-3-methyl-1-oxobutan-2-yl]-1,2-oxazol-3-yl}oxy)methyl]azetidine-1-carboxylate] had a Dmax of 80 to 100% and a DC50 of less than 0.6 µM.

With `CCc1cccc2cc(O)cc(-c3ncc4c(N5CC6CCC(C5)N6)nc(OC[C@]56CCCN5[C@H](COC(=O)N5CC(COc7cc([C@@H](C(=O)N8C[C@H](O)C[C@H]8C(=O)N[C@@H](C)c8ccc(-c9scnc9C)cc8)C(C)C)on7)C5)CC6)nc4c3F)c12` [Compound 122, [(3S,7aR)-7a-{[(4-{3,8-diazabicyclo[3.2.1]octan-3-yl}-7-(8-ethyl-3-hydroxynaphthalen-1-yl)-8-fluoropyrido[4,3-d]pyrimidin-2-yl)oxy]methyl}-hexahydro-1H-pyrrolizin-3-yl]methyl 3-[({5-[(2S)-1-[(2S,4R)-4-hydroxy-2-{[(1S)-1-[4-(4-methyl-1,3-thiazol-5-yl)phenyl]ethyl]carbamoyl}pyrrolidin-1-yl]-3-methyl-1-oxobutan-2-yl]-1,2-oxazol-3-yl}oxy)methyl]azetidine-1-carboxylate], the Dmax was in the range of 20 to 60% and the DC50 was in the range of 0.6 to 1 µM.

As for `CCc1cccc2cc(O)cc(-c3ncc4c(N5CC6CCC(C5)N6)nc(OC[C@]56CCCN5[C@H](COC(=O)N5CCN(c7cc([C@H](C(=O)N8C[C@H](O)C[C@H]8C(=O)N[C@@H](C)c8ccc(-c9scnc9C)cc8)C(C)C)on7)[C@@H](C)C5)CC6)nc4c3F)c12` [Compound 123, [(3S,7aR)-7a-{[(4-{3,8-diazabicyclo[3.2.1]octan-3-yl}-7-(8-ethyl-3-hydroxynaphthalen-1-yl)-8-fluoropyrido[4,3-d]pyrimidin-2-yl)oxy]methyl}-hexahydro-1H-pyrrolizin-3-yl]methyl (3S)-4-{5-[(2R)-1-[(2S,4R)-4-hydroxy-2-{[(1S)-1-[4-(4-methyl-1,3-thiazol-5-yl)phenyl]ethyl]carbamoyl}pyrrolidin-1-yl]-3-methyl-1-oxobutan-2-yl]-1,2-oxazol-3-yl}-3-methylpiperazine-1-carboxylate], the Dmax fell in the range of 80 to 100% and the DC50 is less than 0.6 µM.

For the compound `CCc1cccc2cc(O)cc(-c3ncc4c(N5CC6CCC(C5)N6)nc(OC[C@]56CCCN5[C@H](COC(=O)N5CCN(c7cc([C@@H](C(=O)N8C[C@H](O)C[C@H]8C(=O)N[C@@H](C)c8ccc(-c9scnc9C)cc8)C(C)C)on7)[C@@H](C)C5)CC6)nc4c3F)c12` [Compound 124, [(3S,7aR)-7a-{[(4-{3,8-diazabicyclo[3.2.1]octan-3-yl}-7-(8-ethyl-3-hydroxynaphthalen-1-yl)-8-fluoropyrido[4,3-d]pyrimidin-2-yl)oxy]methyl}-hexahydro-1H-pyrrolizin-3-yl]methyl (3S)-4-{5-[(2S)-1-[(2S,4R)-4-hydroxy-2-{[(1S)-1-[4-(4-methyl-1,3-thiazol-5-yl)phenyl]ethyl]carbamoyl}pyrrolidin-1-yl]-3-methyl-1-oxobutan-2-yl]-1,2-oxazol-3-yl}-3-methylpiperazine-1-carboxylate], the Dmax was less than 20% and the DC50 was less than 0.6 µM.

`CCc1cccc2cc(O)cc(-c3ncc4c(N5CC6CCC(C5)N6)nc(OC[C@]56CCCN5[C@H](COC(=O)N5CCN(c7cc([C@@H](C(=O)N8C[C@H](O)C[C@H]8C(=O)N[C@@H](C)c8ccc(-c9scnc9C)cc8)C(C)C)on7)C[C@H]5C)CC6)nc4c3F)c12` [Compound 125, [(3S,7aR)-7a-{[(4-{3,8-diazabicyclo[3.2.1]octan-3-yl}-7-(8-ethyl-3-hydroxynaphthalen-1-yl)-8-fluoropyrido[4,3-d]pyrimidin-2-yl)oxy]methyl}-hexahydro-1H-pyrrolizin-3-yl]methyl (2R)-4-{5-[(2S)-1-[(2S,4R)-4-hydroxy-2-{[(1S)-1-[4-(4-methyl-1,3-thiazol-5-yl)phenyl]ethyl]carbamoyl}pyrrolidin-1-yl]-3-methyl-1-oxobutan-2-yl]-1,2-oxazol-3-yl}-2-methylpiperazine-1-carboxylate]: the Dmax lay in the range of 20 to 60% and the DC50 lay in the range of 0.6 to 1 µM.

In turn, `CCc1cccc2cc(O)cc(-c3ncc4c(N5CC6CCC(C5)N6)nc(OC[C@@]56CCCN5[C@H](COC(=O)N5CC(Oc7cc([C@H](C(=O)N8C[C@H](O)C[C@H]8C(=O)N[C@@H](C)c8ccc(-c9scnc9C)cc8)C(C)C)on7)C5)CC6)nc4c3F)c12` [Compound 126, [(3S,7aS)-7a-{[(4-{3,8-diazabicyclo[3.2.1]octan-3-yl}-7-(8-ethyl-3-hydroxynaphthalen-1-yl)-8-fluoropyrido[4,3-d]pyrimidin-2-yl)oxy]methyl}-hexahydro-1H-pyrrolizin-3-yl]methyl 3-({5-[(2R)-1-[(2S,4R)-4-hydroxy-2-{[(1S)-1-[4-(4-methyl-1,3-thiazol-5-yl)phenyl]ethyl]carbamoyl}pyrrolidin-1-yl]-3-methyl-1-oxobutan-2-yl]-1,2-oxazol-3-yl}oxy)azetidine-1-carboxylate] returned a Dmax of 80 to 100% and a DC50 of less than 0.6 µM.

In the case of `CCc1cccc2cc(O)cc(-c3ncc4c(N5CC6CCC(C5)N6)nc(OC[C@@]56CCCN5[C@H](COC(=O)N5CC(Oc7cc([C@@H](C(=O)N8C[C@H](O)C[C@H]8C(=O)N[C@@H](C)c8ccc(-c9scnc9C)cc8)C(C)C)on7)C5)CC6)nc4c3F)c12` [Compound 127, [(3S,7aS)-7a-{[(4-{3,8-diazabicyclo[3.2.1]octan-3-yl}-7-(8-ethyl-3-hydroxynaphthalen-1-yl)-8-fluoropyrido[4,3-d]pyrimidin-2-yl)oxy]methyl}-hexahydro-1H-pyrrolizin-3-yl]methyl 3-({5-[(2S)-1-[(2S,4R)-4-hydroxy-2-{[(1S)-1-[4-(4-methyl-1,3-thiazol-5-yl)phenyl]ethyl]carbamoyl}pyrrolidin-1-yl]-3-methyl-1-oxobutan-2-yl]-1,2-oxazol-3-yl}oxy)azetidine-1-carboxylate], the Dmax is less than 20% and the DC50 was 0.6 to 1 µM.

For the compound `CCc1cccc2cc(O)cc(-c3ncc4c(N5CC6CCC(C5)N6)nc(OC[C@]56CCCN5[C@H](COC(=O)N5CC(Oc7cc([C@H](C(=O)N8C[C@H](O)C[C@H]8C(=O)N[C@@H](C)c8ccc(-c9scnc9C)cc8)C(C)C)on7)C5)CC6)nc4c3F)c12` [Compound 128, [(3S,7aR)-7a-{[(4-{3,8-diazabicyclo[3.2.1]octan-3-yl}-7-(8-ethyl-3-hydroxynaphthalen-1-yl)-8-fluoropyrido[4,3-d]pyrimidin-2-yl)oxy]methyl}-hexahydro-1H-pyrrolizin-3-yl]methyl 3-({5-[(2R)-1-[(2S,4R)-4-hydroxy-2-{[(1S)-1-[4-(4-methyl-1,3-thiazol-5-yl)phenyl]ethyl]carbamoyl}pyrrolidin-1-yl]-3-methyl-1-oxobutan-2-yl]-1,2-oxazol-3-yl}oxy)azetidine-1-carboxylate], the Dmax fell in the range of 80 to 100% and the DC50 was less than 0.6 µM.

For `CCc1cccc2cc(O)cc(-c3ncc4c(N5CC6CCC(C5)N6)nc(OC[C@]56CCCN5[C@H](COC(=O)N5CC(Oc7cc([C@@H](C(=O)N8C[C@H](O)C[C@H]8C(=O)N[C@@H](C)c8ccc(-c9scnc9C)cc8)C(C)C)on7)C5)CC6)nc4c3F)c12` [Compound 129, [(3S,7aR)-7a-{[(4-{3,8-diazabicyclo[3.2.1]octan-3-yl}-7-(8-ethyl-3-hydroxynaphthalen-1-yl)-8-fluoropyrido[4,3-d]pyrimidin-2-yl)oxy]methyl}-hexahydro-1H-pyrrolizin-3-yl]methyl 3-({5-[(2S)-1-[(2S,4R)-4-hydroxy-2-{[(1S)-1-[4-(4-methyl-1,3-thiazol-5-yl)phenyl]ethyl]carbamoyl}pyrrolidin-1-yl]-3-methyl-1-oxobutan-2-yl]-1,2-oxazol-3-yl}oxy)azetidine-1-carboxylate], the Dmax fell in the range of 60 to 80% and the DC50 is less than 0.6 µM.
